# Laboratory results as given in paper PMC12446476 (Nature Communications, 2025).
# Where two headings read alike, the source gives them in different places.
# Test system: non-gonococcal Neisseria
# Assay: MIC determination for non-gonococcal Neisseria, agar dilution
# Assay type: cell-based, Neisseria species
# Settings: read-out: Minimum inhibitory concentration
# Text: The 2024 WHO N. gonorrhoeae reference strains were used for quality control. Only whole MIC doubling dilutions are reported. Clinical breakpoints or the epidemiological cutoff (ECOFF, to indicate azithromycin resistance) from EUCAST (v14.0, https://www.eucast.org/clinical_breakpoints) were used to classify isolates as antimicrobial susceptible or resistant. […] Two times the standard inoculum defined by CLSI was used to establish consistent growth in untreated control samples for some strains. In vitro time-kill assays were performed according to CLSI guidelines[65] using Columbia Broth (BD Difco) supplemented with 1% IsoVitaleX Enrichment (BD). Viable bacterial counts were generated by plating 10-fold serially diluted samples on GC agar plates containing 1% IsoVitaleX Enrichment (BD).
compound,measurement,setting,value
Cc1c(CN(C)C(=O)/C=C/c2cnc3c(c2)N[C@H](C)[C@H](O)C(=O)N3)oc2ccccc12 [Debio 1453],MIC,"Neisseria lactamica 1, Replicate 3",0.032 µg/mL
same,MIC,"Neisseria lactamica 2, Consensus",0.064 µg/mL
same,MIC,"Neisseria lactamica 2, Replicate 1",0.064 µg/mL
same,MIC,"Neisseria lactamica 2, Replicate 2",0.064 µg/mL
same,MIC,"Neisseria lactamica 2, Replicate 3",0.064 µg/mL
same,MIC,"Neisseria lactamica 3, Consensus",0.016 µg/mL
same,MIC,"Neisseria lactamica 3, Replicate 1",0.016 µg/mL
same,MIC,"Neisseria lactamica 3, Replicate 2",0.016 µg/mL
same,MIC,"Neisseria lactamica 3, Replicate 3",0.016 µg/mL
same,MIC,"Neisseria lactamica 4, Consensus",0.064 µg/mL
same,MIC,"Neisseria lactamica 4, Replicate 1",0.064 µg/mL
same,MIC,"Neisseria lactamica 4, Replicate 2",0.064 µg/mL
same,MIC,"Neisseria lactamica 4, Replicate 3",0.064 µg/mL
same,MIC,"Neisseria lactamica 5, Consensus",0.016 µg/mL
same,MIC,"Neisseria lactamica 5, Replicate 1",0.032 µg/mL
same,MIC,"Neisseria lactamica 5, Replicate 2",0.016 µg/mL
same,MIC,"Neisseria lactamica 5, Replicate 3",0.016 µg/mL
same,MIC,"Neisseria lactamica 6, Consensus",0.032 µg/mL
same,MIC,"Neisseria lactamica 6, Replicate 1",0.032 µg/mL
same,MIC,"Neisseria lactamica 6, Replicate 2",0.032 µg/mL
same,MIC,"Neisseria lactamica 6, Replicate 3",0.032 µg/mL
same,MIC,"Neisseria lactamica 7, Consensus",0.032 µg/mL
same,MIC,"Neisseria lactamica 7, Replicate 1",0.032 µg/mL
same,MIC,"Neisseria lactamica 7, Replicate 2",0.032 µg/mL
same,MIC,"Neisseria lactamica 7, Replicate 3",0.064 µg/mL
same,MIC,"Neisseria lactamica 8, Consensus",0.032 µg/mL
same,MIC,"Neisseria lactamica 8, Replicate 1",0.032 µg/mL
same,MIC,"Neisseria lactamica 8, Replicate 2",0.032 µg/mL
same,MIC,"Neisseria lactamica 8, Replicate 3",0.064 µg/mL
same,MIC,"Neisseria lactamica 9, Consensus",0.064 µg/mL
same,MIC,"Neisseria lactamica 9, Replicate 1",0.064 µg/mL
same,MIC,"Neisseria lactamica 9, Replicate 2",0.032 µg/mL
same,MIC,"Neisseria lactamica 9, Replicate 3",0.064 µg/mL
same,MIC,"Neisseria lactamica 10, Consensus",0.032 µg/mL
same,MIC,"Neisseria lactamica 10, Replicate 1",0.032 µg/mL
same,MIC,"Neisseria lactamica 10, Replicate 2",0.016 µg/mL
same,MIC,"Neisseria lactamica 10, Replicate 3",0.032 µg/mL
same,MIC,"Neisseria lactamica 11, Consensus",0.032 µg/mL
same,MIC,"Neisseria lactamica 11, Replicate 1",0.032 µg/mL
same,MIC,"Neisseria lactamica 11, Replicate 2",0.032 µg/mL
same,MIC,"Neisseria lactamica 11, Replicate 3",0.032 µg/mL
same,MIC,"Neisseria macacae 1, Consensus",2 µg/mL
same,MIC,"Neisseria macacae 1, Replicate 1",1 µg/mL
same,MIC,"Neisseria macacae 1, Replicate 2",2 µg/mL
same,MIC,"Neisseria macacae 1, Replicate 3",2 µg/mL
same,MIC,"Neisseria macacae 2, Consensus",2 µg/mL
same,MIC,"Neisseria macacae 2, Replicate 1",2 µg/mL
same,MIC,"Neisseria macacae 2, Replicate 2",2 µg/mL
same,MIC,"Neisseria macacae 2, Replicate 3",2 µg/mL
same,MIC,"Neisseria macacae 3, Consensus",0.25 µg/mL
same,MIC,"Neisseria macacae 3, Replicate 1",0.25 µg/mL
same,MIC,"Neisseria macacae 3, Replicate 2",0.25 µg/mL
same,MIC,"Neisseria macacae 3, Replicate 3",0.5 µg/mL
same,MIC,"Neisseria macacae 4, Consensus",2 µg/mL
same,MIC,"Neisseria macacae 4, Replicate 1",1 µg/mL
same,MIC,"Neisseria macacae 4, Replicate 2",2 µg/mL
same,MIC,"Neisseria macacae 4, Replicate 3",2 µg/mL
same,MIC,"Neisseria macacae 5, Consensus",2 µg/mL
same,MIC,"Neisseria macacae 5, Replicate 1",2 µg/mL
same,MIC,"Neisseria macacae 5, Replicate 2",2 µg/mL
same,MIC,"Neisseria macacae 5, Replicate 3",2 µg/mL
same,MIC,"Neisseria macacae 6, Consensus",0.5 µg/mL
same,MIC,"Neisseria macacae 6, Replicate 1",0.25 µg/mL
same,MIC,"Neisseria macacae 6, Replicate 2",0.5 µg/mL
same,MIC,"Neisseria macacae 6, Replicate 3",0.5 µg/mL
same,MIC,"Neisseria macacae 7, Consensus",0.5 µg/mL
same,MIC,"Neisseria macacae 7, Replicate 1",0.25 µg/mL
same,MIC,"Neisseria macacae 7, Replicate 2",0.5 µg/mL
same,MIC,"Neisseria macacae 7, Replicate 3",0.5 µg/mL
same,MIC,"Neisseria meningitidis gr 29E, Consensus",0.064 µg/mL
same,MIC,"Neisseria meningitidis gr 29E, Replicate 1",0.064 µg/mL
same,MIC,"Neisseria meningitidis gr 29E, Replicate 2",0.032 µg/mL
same,MIC,"Neisseria meningitidis gr 29E, Replicate 3",0.064 µg/mL
same,MIC,"Neisseria meningitidis gr A, Consensus",0.032 µg/mL
same,MIC,"Neisseria meningitidis gr A, Replicate 1",0.032 µg/mL
same,MIC,"Neisseria meningitidis gr A, Replicate 2",0.032 µg/mL
same,MIC,"Neisseria meningitidis gr A, Replicate 3",0.032 µg/mL
same,MIC,"Neisseria meningitidis gr B, Consensus",0.016 µg/mL
same,MIC,"Neisseria meningitidis gr B, Replicate 1",0.016 µg/mL
same,MIC,"Neisseria meningitidis gr B, Replicate 2",0.016 µg/mL
same,MIC,"Neisseria meningitidis gr B, Replicate 3",0.016 µg/mL
same,MIC,"Neisseria meningitidis gr C, Consensus",0.032 µg/mL
same,MIC,"Neisseria meningitidis gr C, Replicate 1",0.032 µg/mL
same,MIC,"Neisseria meningitidis gr C, Replicate 2",0.032 µg/mL
same,MIC,"Neisseria meningitidis gr C, Replicate 3",0.032 µg/mL
same,MIC,"Neisseria meningitidis gr W, Consensus",0.008 µg/mL
same,MIC,"Neisseria meningitidis gr W, Replicate 1",0.008 µg/mL
same,MIC,"Neisseria meningitidis gr W, Replicate 2",0.008 µg/mL
same,MIC,"Neisseria meningitidis gr W, Replicate 3",0.008 µg/mL
same,MIC,"Neisseria meningitidis gr X, Consensus",0.016 µg/mL
same,MIC,"Neisseria meningitidis gr X, Replicate 1",0.016 µg/mL
same,MIC,"Neisseria meningitidis gr X, Replicate 2",0.016 µg/mL
same,MIC,"Neisseria meningitidis gr X, Replicate 3",0.016 µg/mL
same,MIC,"Neisseria meningitidis gr Y, Consensus",0.008 µg/mL
same,MIC,"Neisseria meningitidis gr Y, Replicate 1",0.016 µg/mL
same,MIC,"Neisseria meningitidis gr Y, Replicate 2",0.008 µg/mL
same,MIC,"Neisseria meningitidis gr Y, Replicate 3",0.008 µg/mL
same,MIC,"Neisseria meningitidis gr Z, Consensus",0.016 µg/mL
same,MIC,"Neisseria meningitidis gr Z, Replicate 1",0.032 µg/mL
same,MIC,"Neisseria meningitidis gr Z, Replicate 2",0.016 µg/mL
same,MIC,"Neisseria meningitidis gr Z, Replicate 3",0.016 µg/mL
same,MIC,"Neisseria mucosa 1, Consensus",0.25 µg/mL
same,MIC,"Neisseria mucosa 1, Replicate 1",0.25 µg/mL
same,MIC,"Neisseria mucosa 1, Replicate 2",0.5 µg/mL
same,MIC,"Neisseria mucosa 1, Replicate 3",0.25 µg/mL
same,MIC,"Neisseria mucosa 2, Replicate 1",0.064 µg/mL
same,MIC,"Neisseria mucosa 3, Consensus",0.032 µg/mL
same,MIC,"Neisseria mucosa 3, Replicate 1",0.032 µg/mL
same,MIC,"Neisseria mucosa 3, Replicate 2",0.032 µg/mL
same,MIC,"Neisseria mucosa 3, Replicate 3",0.064 µg/mL
same,MIC,"Neisseria mucosa 4, Consensus",1 µg/mL
